Patent US20140163083A1, “NOVEL CRYSTALLINE SALTS OF ASENAPINE” (SANDOZ AG, priority 2011, published 2014)
Where a name gives a salt, the structure may show the parent alone.

What was measured:
[1] = Saturated solution of the maleate salt (Funke et al., literature); format: physicochemical; settings: water, thermodynamic from solid; translated from saturated solution of the maleate at 23° C., pH=4.4; read-out: free base solubility
[2] = 23° C., pH=4.4; cited from earlier work
[3] = Hygroscopic nature by dynamic vapor sorption; format: physicochemical; settings: relative humidities greater than about 20%
Source text: The hygroscopic nature of the succinate salt hemihydrate was investigated by dynamic vapor sorption.

| Molecule | solubility [1] [mg/mL] | concentration of saturated solution [2] [µg/mL] | water content by dynamic vapor sorption [3] [%] |
| --- | --- | --- | --- |
| CN1C[C@@H]2c3ccccc3Oc3ccc(Cl)cc3[C@H]2C1 (relative stereo) [maleate salt of Asenapine, trans-5-chloro-2-methyl-2,3,3a,12b-tetrahydro-1H-dibenz[2,3:6,7]oxepino[4,5-c]pyrrole] | ~4.1 | 5800 | – |
| Asenapine succinate form I [succinate salt hemihydrate] | – | – | 2 to 2.5 |
